# In article PMC9080259, “Dual-cycle immobilization to reuse both enzyme and support by reblossoming enzyme–inorganic hybrid nanoflowers” (RSC Advances, 2018):
# Where a name gives a salt, the structure may show the parent alone.
# System: T1, Bromelain
# T1 construct: commercial native preparation
# Test: absorbance at […] nm, hydrolysis
# Format: biochemical
# Settings: free enzyme; 37 °C; pH not told; substrate of the kinetics taken from the activity assay
compound,measurement,value
CCOC(=O)[C@H](CCCN=C(N)N)NC(=O)c1ccccc1 [N-Benzoyl-L-arginine ethyl ester hydrochloride],Km,930 ± 40 µM
